Results reported in patent US20210046097A1, “NEUTRAL ENDOPEPTIDASE (NEP) AND HUMAN SOLUBLE ENDOPEPTIDASE (hSEP) INHIBITORS FOR PROPHYLAXIS AND TREATMENT OF EYE DISEASES” (FORTY-FOUR PHARMACEUTICALS SP. Z.O.O, priority 2018, published 2021).

Assays:
[1] = tested on: doxorubicin-induced apoptosis in the liver; experiment: Doxorubicin-induced apoptosis in rat liver (TUNEL staining, stereological disector); assay type: in vivo
Text: (§1) Apoptosis is a significant component of cell death in optic and/or eye diseases including (i) all forms of primary and secondary glaucoma, preferably such as e.g. primary open-angle glaucoma, normal-tension glaucoma, primary angle-closure glaucoma, pseudoexfoliation syndrome and glaucoma, pigment dispersion syndrome and glaucoma, neovascular glaucoma, inflammatory glaucoma, lens-related glaucoma, traumatic glaucoma, primary congenital glaucoma, iatrogenic induced glaucoma, and malignant glaucoma (R. Agarwal, S. K. Gupta, P. Agarwal, R. Saxena & S. S. Agrawal (2009) Indian J. Ophthalmol. 57, 257-266); (ii) aquired macular disorders, preferably such as e.g. age-related macular degeneration, idiopathic choroidal neovascularisation, central serous chorioretinopathy, vitreomacular interface disorders, idiopathic macular telangiectasia, cystoid macular oedema, and microcystic macular oedema (J. L. Dunaief, T. Dentchev, G.-S. Ying & A. H. Milam (2002) Arch. Ophthalmol. 120, 1435-1442); (iii) optic neuropathy, preferably such as e.g. anterior or posterior ischemic optic neuropathy (B. J. Slater, Z. Mehrabian, Y. Guo, A. Hunter & S. L. Bernstein (2008) Invest. Ophthalmol. Vis. Sci. 49, 3671-3676); (iv) optic neuritis (K. S. Shindler, E. Ventura, M. Dutt & A. Rostami (2008) Exp.Eye Res. 87, 208-213); (v) uveitis, preferably such as e.g. anterior uveitis, intermediate uveitis, posterior uveitis, and panuveitis (C.-C. Chan, D. M. Matteson, Q. Li, S. M. Whitcup & R. B. Nussenblatt (1997) Arch. Ophthalmol. 115, 1559-1567); (vi) hereditary fundus dystrophies, preferably such as e.g. retinitis pigmentosa, cone dystrophy, cone-rod dystrophy, rod dystrophy, Stargardt's disease, Bietti's crystalline corneoretinal dystrophy, familial benign fleck retina, Best vitelliform macular dystrophy, adult-onset vitelliform macular dystrophy, North Carolina macular dystrophy, familial dominant drusen, and concentric annular macular dystrophy (H. Zhang, X. Li, X. Dai, J. Han, Y. Zhang, Y. Qi, Y. He, Y. Liu, B. Chang & J. J. Pang (2017) J. Ophthalmol. 2017, 1-13 9721362); (vii) retinal vascular diseases, preferably such as e.g. diabetic retinopathy, non-diabetic retinopathy, retinal venous occlusive disease, retinal arterial occlusive disease, ocular ischemic syndrome, hypertensive eye disease, sickle cell retinopathy, thalassemia retinopathy, retinopathy of prematurity, retinal artery macroaneurysm, primary retinal telangiectasia, Eales disease, and radiation retinopathy (G. Donati, A. Kapetanios, M. Dubois-Dauphin & C. J. Pournaras (2008) Acta Ophthalmol. 86, 302-306); (viii) scleritis or episcleritis (C. Heinz, N. Bograd, J. Koch & A. Heiligenhaus (2013) Graefes Arch. Clin. Exp. Ophthalmol. 251, 139-142); (ix) retinal detachments (J. G. Arroyo, L. Yang, D. Bula & D. F. Chen (2005) Am. […]

[2] = tested on: doxorubicin-induced apoptosis in retinal ganglion cells; experiment: Doxorubicin-induced apoptosis in rat retinal ganglion cells (intravitreal doxorubicin, TUNEL staining, stereological disector); assay type: in vivo
Text: as §1

[3] = 60 mg/kg/d s.c., result in words
[4] = vs doxorubicin + vehicle, 60 mg/kg/d s.c.

`O=C(O)CN1C(=O)[C@@H](NC(=O)C2(C[C@@H](CCc3ccccc3)C(=O)O)CCCC2)CCc2ccccc21` [Example (6), (2R)-2-{[1-({[(3S)-1-(carboxymethyl)-2-oxo-2,3,4,5-tetrahydro-1H-1-benzazepin-3-yl]amino}carbonyl)cyclopentyl]methyl}-4-phenylbutanoic acid] was tested, and the “Protection against doxorubicin induced apoptosis in the liver (reduction of Nv of TUNEL positive cells vs vehicle)” value [1, 3] was “significant protection”, the “Nv, number of TUNEL positive cells, liver” value ([1]; Wistar rats, 60 mg/kg/d s.c. osmotic minipump, doxorubicin 5 mg/kg i.p. t.i.d. days 1-3, 5 days after first injection, mean ± SEM) was 7.93 ± 0.25 TUNEL positive cells×10^2/mm^3 and the “Nv as % of doxorubicin + vehicle, liver” value ([1]; Wistar rats, 60 mg/kg/d s.c. osmotic minipump, doxorubicin 5 mg/kg i.p. t.i.d. days 1-3, day 5) was 76.54%. The “Decrease of density of apoptotic cells in the rat liver” value [1, 4] was 23.46%, the “Protection against doxorubicin induced apoptosis in the retina (reduction of Nv of TUNEL positive cells vs vehicle)” value [2, 3] was “significant protection” and the “Nv, number of TUNEL positive cells, retinal ganglion cells (RGC)” value ([2]; Wistar rats, 60 mg/kg/d s.c. osmotic minipump, doxorubicin 5 μg into vitreous body day 1, 5 days after, mean ± SEM) was 33.64 ± 0.96 TUNEL positive cells×10^3/mm^3. The “Nv as % of doxorubicin + vehicle, RGC” value ([2]; Wistar rats, 60 mg/kg/d s.c. osmotic minipump, doxorubicin 5 μg into vitreous body day 1, day 5) was 91.79% and the “Decrease of density of apoptotic cells in the retina” value [2, 4] was 8.21%.
